Measurements published in patent publication US11542545B2, “Microfluidic measurements of the response of an organism to a drug” (priority 2014, dated 2023).
Where two headings read alike, the source gives them in different places.

Columns and labels:
[1] = system: resistant E. coli isolate; test: 23S rDNA copy number by digital PCR on a SlipChip after ciprofloxacin exposure, resistant isolate; assay type: cell-based; details: Example 4 resistant isolate, 2.5 ug/mL ciprofloxacin
[2] = system: ciprofloxacin-susceptible E. coli isolate from a patient with a urinary tract infection; details: 0.75 ug/mL ciprofloxacin, 30 minutes, 1:1 BHI:urine, qPCR, 3 replicates
[3] = system: ciprofloxacin-susceptible E. coli isolate from a patient with a urinary tract infection; details: 0.75 ug/mL ciprofloxacin, 30 minutes, sample diluted 1:10, digital PCR, Poisson statistics
[4] = system: susceptible UTI E. coli isolate; details: 2.5 ug/mL ciprofloxacin, 15 minutes, BHI
resistant UTI E. coli = details: 2.5 ug/mL ciprofloxacin, 15 minutes, BHI
E. coli isolates = details: RNA target; cited from earlier work
[5] = system: E. coli isolates from patients with urinary tract infections and susceptible to various antibiotics; details: 1:1 BHI:urine, qPCR
E. coli = details: after treatment with trimethoprim, susceptible cells, vs baseline level of zero (Slager 2014); cited from earlier work

O=C(O)c1cn(C2CC2)c2cc(N3CCNCC3)c(F)cc2c1=O [ciprofloxacin]
change in rDNA copy number [1]: No significant change
Cq of rDNA, treated sample [2]: 22.84+/−0.53
23S rDNA concentration, treated sample [3]: 148,031+/−7,103 copies/mL
23S CT Treated [4]: 20.19/20.84
FeoB CT Treated [4]: 23.3/23.71
dnaAinh CT Treated [4]: 23.93/23.97
recA CT Treated [4]: 24.81/24.65
23S CT Treated (resistant UTI E. coli): 20.22/20.13
FeoB CT Treated (resistant UTI E. coli): 23.19/23.1
dnaAinh CT Treated (resistant UTI E. coli): 23.68/23.89
recA CT Treated (resistant UTI E. coli): 27.19/27.05
Response to Ciprofloxacin: EcHS_A0999 dmsA anaerobic dimethyl sulfoxide reductase, A subunit (E. coli isolates): Same or Downregulated
Response to Ciprofloxacin: EcHS_A1247 pepT peptidase T (E. coli isolates): Same or Downregulated
Response to Ciprofloxacin: EcHS_A1333 narK nitrite extrusion protein 1 (E. coli isolates): Same or Downregulated
Response to Ciprofloxacin: EcHS_A1334 narG nitrate reductase, alpha subunit (E. coli isolates): Same or Downregulated
Response to Ciprofloxacin: EcHS_A1335 narH nitrate reductase, beta subunit (E. coli isolates): Same or Downregulated
Response to Ciprofloxacin: EcHS_A1557 fdnG formate dehydrogenase, nitrate inducible, alpha subunit, selenocysteine-containing (E. coli isolates): Same or Downregulated
Response to Ciprofloxacin: EcHS_A1755 hypothetical protein (E. coli isolates): Same or Downregulated
Response to Ciprofloxacin: EcHS_A1940 DNA damage-inducible protein YebG (E. coli isolates): Significantly Upregulated
Response to Ciprofloxacin: EcHS_A1987 flhC transcriptional activator FlhC (E. coli isolates): Same or Downregulated
Response to Ciprofloxacin: EcHS_A1988 flhD transcriptional activator FlhD (E. coli isolates): Same or Downregulated
Response to Ciprofloxacin: EcHS_A2346 napF ferredoxin-type protein (E. coli isolates): Same or Downregulated
Response to Ciprofloxacin: EcHS_A2835 recA recombinase A (E. coli isolates): Significantly Upregulated
Response to Ciprofloxacin: EcHS_A4283 lexA LexA repressor (E. coli isolates): Significantly Upregulated
Response to Ciprofloxacin: EcHS_A4284 dinF DNA-damage-inducible SOS response protein (E. coli isolates): Significantly Upregulated
Response to Ciprofloxacin: EcHS_A4300 uvrA excinuclease ABC subunit A (E. coli isolates): Significantly Upregulated

O=C1CN(/N=C/c2ccc([N+](=O)[O-])o2)C(=O)N1 [nitrofurantoin]
fold change in rDNA copy number ([5]; nitrofurantoin treatment, 15 minutes): 1.62 fold

CN(C)[C@@H]1C(O)=C(C(N)=O)C(=O)[C@@]2(O)C(O)=C3C(=O)c4c(O)cccc4[C@@](C)(O)[C@H]3C[C@@H]12 [tetracycline]
fold change in rDNA copy number ([5]; tetracycline treatment, 30 minutes): 1.55 fold

COc1cc(Cc2cnc(N)nc2N)cc(OC)c1OC [trimethoprim]
relative DNA copy number as compared to the distance from the origin of replication (oriC) (E. coli): peaks close to the origin of replication

trimethoprim/sulfamethoxazole
fold change in rDNA copy number ([5]; trimethoprim/sulfamethoxazole treatment, 45 minutes): 1.35 fold
